Values of other authors, collected in patent US20240309009A1, “Anxiolytic Compounds, Pharmaceutical Compositions, and Methods of Treating Anxiety and Other Disorders” (Miralogx LLC, priority 2022, published 2024).
Read-outs that look alike come from different tables or passages of the source.

Legend:
[1] = test system: cell cultures
[2] = test system: zebrafish
[3] = test system: rat nerve cells
[4] = unlike ibogaine

SMILES | duration of effects (inhaled or injected) [min] | duration of effects (orally ingested along with a monoamine oxidase inhibitor (MAOI)) | toxicity compared with ibogaine [1] | toxicity compared with ibogaine [2] | formation of new dendrites (branches) [3] | formation of new spines on dendrites [3] | water solubility [4]
CN(C)CCc1c[nH]c2ccccc12 [DMT, N,N-Dimethyltryptamine] | 5 to 15 | three | – | – | – | – | –
COc1ccc2c3c([nH]c2c1)CCN(C)CC3 [TBG, Tabernanthalog] | – | – | less toxic than ibogaine | less toxic than ibogaine | increased formation of new dendrites | new spines on those dendrites | water-soluble
